Measurements taken from US8492567B2, “(Poly)Aminoalkylaminoalkylamide, alkyl-urea, or alkyl-sulfonamide derivatives of epipodophyllotoxin, a process for preparing them, and application thereof in therapy as anticancer agents” (Pierre Fabre Medicament, priority 2008, dated 2013).
Counter-ions that a name gives are not always drawn.

Key:
[1] = test system: A549 human line (non-small cell lung cancer); assay: Cytotoxicity test: cell growth inhibition of the A549 human line (ATP-lite luminescence); type: cell-based; conditions: A549 cells, 48 hrs incubation with compound, read-out: IC50 (concentration providing a 50% inhibition of cell proliferation)
Description: A cytotoxicity test is used. It measures the cell growth inhibition of the A549 human line (non-small cell lung cancer):
The A549 tumor cells are plated in a 96-well plate in RPMI 1640 medium free of phenol red (Seromed) to which is added 5% of fetal calf serum (100 μl/well, 1.25×10^4 cells/ml). After incubation for 24 hrs at 37° C. in an incubator at 5% CO2, the medium is replaced by that containing the compound to be tested, followed by incubation of the plates for another 48 hrs. Cell survival is assessed by measuring the luminescence after salting-out of the ATP from the medium using the cell lysis, luciferase and luciferine solutions included in the ATP-lite-M™ kit following the manufacturer's guidelines (Packard, Rungis, France). Each experimental condition was tested at least three times in sixplicate.

P388 murine leukemia = assay: Experimental P388 tumor model, survival of mice; type: in vivo; conditions: dose of 0.16 mg/kg
Excerpt: Experimental P388 tumor model. The model used is P388 murine leukemia (Tumor Models in Cancer Research. Teicher, B. A. ed., Humana Press Inc., Totowa, N.J. Pp. 23-40, 2002), which is maintained by sequential intraperitoneal transplantations in DBA/2 mice (DBA/2JIco mice, Charles River), as previously disclosed (Classic in vivo cancer models: Three examples of mouse models used in experimental therapeutics. Current Protocols in Pharmacology Unit 5.24: 5.24.1-5.24.16, 2001).
The experiment is carried out according to a previously disclosed protocol (Cancer Chemother. Pharmacol. 1998, 41, 437-447). This comprises implanting 10^6 P388 leukemia cells per mouse into C2DF1 hybrid mice (CD2F1/CrlBR, Charles River, St Aubin-les-Elbeuf, France) intravenously at day zero. After the animals have been randomized in treatment and control cages, the compounds to be tested are administered in one single injection by intraperitoneal route the day after the tumor transplantation, at day 1. The animals are then monitored every day, weighed twice per week, and any clinical reaction is recorded. The survival rate is the parameter used to assess antitumor activity. […] The T/Csurvival ratio is calculated for each dosage and the largest value obtained represents the maximum increase in survival rate achieved (maximum activity), which is defined as the optimum T/Csurvival ratio.

SMILES	melting point	also measured
COc1cc(C2c3cc4c(cc3[C@@H](NS(=O)(=O)CCNCCCNCCCCNCCCN)[C@H]3COC(=O)[C@H]23)OCO4)cc(OC)c1O (stereo partly drawn) (as salt: hydrochloride)	191 °C	–
COc1cc(C2c3cc4c(cc3[C@@H](NC(=O)NCCCNCCCCNCCCN)[C@H]3COC(=O)[C@H]23)OCO4)cc(OC)c1O (stereo partly drawn) [Compound 48, 1-{3-[4-(3-Aminopropylamino)-butylamino]-propyl}-3-[9-(4-hydroxy-3,5-dimethoxyphenyl)-8-oxo-5,5a,6,8,8a,9-hexahydrofuro[3′,4′:6,7]-naphtho[2,3-d][1,3]dioxol-5-yl]-urea]	–	IC50 [1]: 12 nM
COc1cc(C2c3cc4c(cc3[C@@H](NC(=O)NCCCNCCCNCCCCNCCCN)[C@H]3COC(=O)[C@H]23)OCO4)cc(OC)c1O (stereo in doubt)	213 °C	–
COc1cc(C2c3cc4c(cc3[C@@H](NC(=O)NCCCNCCCCNCCCN)[C@H]3COC(=O)[C@H]23)OCO4)cc(OC)c1O (stereo partly drawn) (as salt: hydrochloride) [Compound 48, 1-{3-[4-(3-Aminopropylamino)-butylamino]-propyl}-3-[9-(4-hydroxy-3,5-dimethoxyphenyl)-8-oxo-5,5a,6,8,8a,9-hexahydrofuro[3′,4′:6,7]-naphtho[2,3-d][1,3]dioxol-5-yl]-urea]	166 °C	–
COc1cc(C2c3cc4c(cc3[C@@H](NC(=O)CCCN(C)C)[C@H]3COC(=O)[C@H]23)OCO4)cc(OC)c1O (stereo in doubt) (as salt: hydrochloride)	169 °C	–
COc1cc(C2c3cc4c(cc3[C@@H](NC(=O)CCCNCCCNCCCCNCCCN)[C@H]3COC(=O)[C@H]23)OCO4)cc(OC)c1O (stereo partly drawn) [Compound 21, 4-{3-[4-(3-Aminopropylamino)-butylamino]-propylamino}-N-[9-(4-hydroxy-3,5-dimethoxyphenyl)-8-oxo-5,5a,6,8,8a,9-hexahydrofuro[3′,4′:6,7]-naphtho[2,3-d][1,3]dioxol-5-yl]-butyramide]	–	IC50 [1]: 1.7 nM; optimum T/Csurvival value (P388 murine leukemia; single intraperitoneal injection at day 1, 10^6 P388 cells intravenously at day 0, mice): 186%; increase in survival rate of the animals (P388 murine leukemia; single intraperitoneal injection at day 1, P388 leukemia mice): 86%
COc1cc(C2c3cc4c(cc3[C@@H](NC(=O)CCCN)[C@H]3COC(=O)[C@H]23)OCO4)cc(OC)c1O (stereo in doubt) (as salt: hydrochloride)	284 °C	–
